Reference: patent publication US11466006B2, “Dual selective PI3 delta and gamma kinase inhibitors” (Rhizen Pharmaceuticals SA, priority 2013, dated 2022)

Tests used:
[1] = test system: T-lymphoma (MOLT-4, Jurkat, CCRF-CEM, Hut-78 & HuT-102) cells; assay: In vitro cell proliferation assay in leukemic cell lines (MTT); format: cell-based
Description: Growth inhibition assays were carried out using 10% FBS supplemented media. Cells were seeded at a concentration of 5000-20,000 cells/well in a 96-well plate. Test compounds at a concentration range from 0.01 to 10000 nM were added after 24 h. Growth was assessed using the 3-[4,5-dimethylthiazol-2-yl]-2,5-diphenyltetrazolium bromide (MTT) dye reduction test at 0 h (prior to the addition of the test compound) and 72 h after the addition of test compound. Absorbance was read on a Fluostar Optima (BMG Labtech, Germany) at a wave length of 450 nm. Data were analysed using GraphPad Prism and percent inhibition due to the test compound compared to the control was calculated accordingly.

[2] = molecular target: T1, PI3K gamma (Mus musculus, UniProt Q9JHG7); assay: c5a induced AktS473 phosphorylation in RAW 264.7 macrophages (PI3Kγ selectivity); format: cell-based; conditions: read-out: Cellular IC50 PI3K gamma (c5a induced pAKT in RAW macrophages)
T1 construct: endogenous in cells; host or cells: RAW 264.7 macrophages
Description: The objective of this study was to determine the effect of Compound A1 on PI3Kγ kinase mediated c5a induced AktS473 phosphorylation in RAW 264.7 macrophages. • RAW 264.7 cells were treated with desired concentrations of the test compound for 15 min. 1 ml of 2× c5a was added such that the final concentration was 50 ng/ml and incubated for 15 min. • Media was discarded and washed with 1 ml of ice-cold 1× PBS. • 250 μl of cell lysis buffer was added and incubated on ice for 30 min. • Samples were centrifuged and supernatant was stored at −80° C. until analysis • Samples were analyzed by Western Blotting using pAKT (S473) as the primary and anti-rabbit IgG-HRP as a secondary antibody. • Intensity of the bands was determined using ImageJ 1.42q (NIH, USA) and normalized to Actin (loading control). Data was plotted using GraphPad Prism (Version 5.02).

[3] = test system: primary cells derived from B-cell lymphomas; assay: Anticancer activity in patient derived B-lymphoma cells (Annexin V/PI); format: cell-based; conditions: 4 μM, 48-h incubation
Description: Primary cells from lymphoid tumors were exposed to the test compound [Compound A1] to assess the induction of cell death. Cells were derived from diffuse large B-cell lymphoma (DLBCL), mantle cell lymphoma (MCL), splenic marginal zone lymphoma (SMZL), extranodal marginal zone lymphoma (EMZL), or chronic lymphocytic leukemia (CLL, no.=1). Cells were treated with desired concentrations of the compound and apoptosis (Annexin V/PI) was assessed by flow-cytometry after a 48-h incubation period.

[4] = test system: pAKT; assay: Inhibition of AKT phosphorylation in B-lymphoma cell lines; format: cell-based; conditions: LY-1, LY-10, Daudi, JEKO, REC and MAVER cells; 48 hours
Description: LY-1, LY-10, Daudi, JEKO, REC and MAVER cells were incubated with desired concentrations of [compound A1] for 48 hours. Cells were lysed and pAKT was determined by Western Blotting. Bands were quantified using ImageJ and normalized to actin.

[5] = test system: Female Wistar rats; assay: Lipopolysaccharide-induced rat air pouch model of inflammation; format: in vivo; conditions: Neutrophil, oral, 1 h before LPS, pouch fluid at 6 h, read-out: ED50, reduction of neutrophil migration into the rat air pouch
Description: Female Wistar rats (175-200 g) were acclimatized for seven days prior to the start of the experiment Animals were randomly distributed to various groups based on their body weights Animals were anaesthetised with ether and subcutaneous air pouches were made by injecting 20 ml of sterile air under the skin in the intra-scapular area (day 0) and maintained with a second 10-ml injection of sterile-filtered air on day 4. On day 6, oral treatment was commenced 1 h prior to induction of inflammation by s.c. injection of LPS solution on day 6. A volume of 5-ml of LPS solution dissolved in sterile saline (100 μg/kg) was injected into each pouch. Samples of pouch fluid were taken at 6 h after administration of LPS by flushing the pouch with 5 ml of sterile saline and withdrawing 4 ml of fluid. The numbers of leukocytes present in pouch fluid was determined microscopically using a haemocytometer. Differential cell content was determined by microscopic examination of fluid smears stained with Diff-Quik.

[6] = test system: male guinea pigs; assay: Ovalbumin induced pulmonary eosinophilia in male guinea pigs; format: in vivo, guinea pig; conditions: sensitized guinea pigs, 0.3, 1, 3 mg/kg oral
Description: After the quarantine period, 0.3 mL of blood samples was collected from orbital vein by retro-orbital plexus method from each individual animal and analysed on a cell analyser (ADVIA 2120, Siemens). Based on their total cell count, guinea pigs were randomized and divided into various groups. Ear pinna was marked with an indelible marking pen for identification. On day 0, weights were recorded and animals were sensitized with 50 μg of Ovalbumin (OVA) and 10 mg of alum solution (1 mL) intraperitoneally. On day 7 and day 14, the above sensitization protocol was repeated. […] On day 19, 20, and 21, after the treatment with test compound by oral gavage, 30 mins later animals were exposed to 0.5% w/v, 0.5% and 1% Ovalbumin challenge respectively. Control & sham group animals were treated with 0.5% w/v methyl cellulose (vehicle). Sham control groups were sensitized with 10 mg of alum on day 0, 7 & 14 and exposed to saline solution (SAL) with the same nebulization rate on day 19. 20 and 21. Twenty hours after last OVA challenge, airway hyperresponsiveness was measured by whole body plethysmograph against cumulative doses of methacholine challenge (75, 100, 125 & 150 μg/ml), after measuring the airway response, blood samples and BAL fluid was collected. Samples were analysed for total cell count by using neubuear chamber under microscope and differential leukocyte count was done manually.

T1 sequence (Q9JHG7 whole entry): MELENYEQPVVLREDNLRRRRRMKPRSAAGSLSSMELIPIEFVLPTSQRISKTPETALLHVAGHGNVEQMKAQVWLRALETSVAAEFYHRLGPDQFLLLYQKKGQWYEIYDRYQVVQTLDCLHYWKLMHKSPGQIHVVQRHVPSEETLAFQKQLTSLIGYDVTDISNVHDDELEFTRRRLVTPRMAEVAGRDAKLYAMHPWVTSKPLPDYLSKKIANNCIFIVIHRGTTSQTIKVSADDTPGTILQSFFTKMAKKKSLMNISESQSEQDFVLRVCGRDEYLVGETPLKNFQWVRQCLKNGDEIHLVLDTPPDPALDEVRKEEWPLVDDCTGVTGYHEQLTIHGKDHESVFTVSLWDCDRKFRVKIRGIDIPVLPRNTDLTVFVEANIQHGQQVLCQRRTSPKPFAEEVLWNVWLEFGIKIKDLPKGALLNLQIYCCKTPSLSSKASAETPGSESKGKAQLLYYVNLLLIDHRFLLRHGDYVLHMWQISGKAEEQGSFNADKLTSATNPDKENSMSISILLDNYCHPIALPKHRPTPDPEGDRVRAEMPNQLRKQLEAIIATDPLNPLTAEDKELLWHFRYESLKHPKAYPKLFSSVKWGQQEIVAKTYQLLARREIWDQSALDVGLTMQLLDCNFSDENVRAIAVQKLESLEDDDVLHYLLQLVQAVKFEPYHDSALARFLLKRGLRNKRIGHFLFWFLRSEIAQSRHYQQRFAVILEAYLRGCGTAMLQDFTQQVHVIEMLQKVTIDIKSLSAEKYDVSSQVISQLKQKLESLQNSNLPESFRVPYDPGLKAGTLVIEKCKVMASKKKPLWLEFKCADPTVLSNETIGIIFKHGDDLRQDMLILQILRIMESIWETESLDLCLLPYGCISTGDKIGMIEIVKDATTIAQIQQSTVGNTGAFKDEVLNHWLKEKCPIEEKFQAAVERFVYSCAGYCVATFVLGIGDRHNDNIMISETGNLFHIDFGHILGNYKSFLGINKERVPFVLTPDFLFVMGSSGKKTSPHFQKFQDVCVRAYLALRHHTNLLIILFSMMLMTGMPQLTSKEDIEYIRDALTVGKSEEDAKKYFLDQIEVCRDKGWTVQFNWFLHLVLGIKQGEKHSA

`CC[C@H](Nc1ncnc2[nH]cnc12)c1oc2ccccc2c(=O)c1-c1cccc(F)c1` [Compound A1, (S)-2-(1-(9H-purin-6-ylamino)propyl)-3-(3-fluorophenyl)-4H-chromen-4-one] was tested, and the apparent cytotoxicity ([1]; 72-h incubation period, up to 10 μM) was “did not display any apparent cytotoxicity”, the GI50 ([1]; MOLT-4, Jurkat, CCRF-CEM, Hut-78 & HuT-102, 72 h, MTT, read-out: GI50, reduction in T-lymphoma cell viability) was 1000 to 5000 nM and the IC50 [2] was 22.3 nM. For the same compound, the “cell death (apoptosis, Annexin V/PI)” value [3] was “increase in cell death”, the EC50 [4] was 20 to 200 nM and the ED50 [5] was 2.6 mg/kg. For the same compound, the “airway hyperresponsiveness against methacholine challenge” value [6] was “significant dose dependent reduction” and the “eosinophil infiltration into the bronchoalveolar lavage fluid” value [6] was “significant dose dependent reduction”.
